Measured values published in patent publication US6649656B1, “Anthranilic acid derivatives” (Teijin Limited, priority 1998, dated 2003).
Read-outs that look alike come from different tables or passages of the source.

What was measured:
Format in all cases: cell-based
L929 cells = experiment: Measurement of cytotoxicity using mouse tumor cell L929 (neutral red assay)
Description: [Procedure] The cytotoxicity action on tumor cell was measured by neutral red assay (the method described in the Journal of Tissue Culture Methodology vol.9, p.7 (1984) and Toxicology Letters, vol.24, p.119 (1985)). Concretely, L929 cells (5×10^4 cells/ml, 10% FCS/RPMI) were added to the wells of a 96 well ELISA plate at a rate of 100 μL each and cultured for a night, and the testing compounds of respective measurement concentrations were dissolved in DMSO solution and added to the above cells. The culture was continued for 3 days, and 2.0 μL of Neutral Red was added to attain the final concentration of 0.01%. The mixture was incubated for 1 hour at 37° C., the supernatant of the cell culture product was removed and the residue was washed twice with 200 μL of PBS to remove excess Neutral Red. Thereafter, the dye taken into the cell was extracted by adding 100 μL of 50% ethanol-1% acetic acid aqueous solution and the amount of the dye was determined by measuring the absorbance at 490 nm. The cytotoxicity was determined at each concentration of the test compound taking the cytotoxicity free from the drug as 100%. […] Two sets of measurement were performed for each test under the same condition and the average value was used as the test result.

[1] = system: IgE antibody production from human lymphocyte; experiment: Human in vitro IgE antibody production suppressing activity (lymphocyte culture with IL-4 + IL-10 + anti-CD40 antibody, sandwich ELISA); conditions: for IC50: IgE antibody production; for inhibition at 1 µM: test drug concentration 1 μM, IL-4 + IL-10 + anti-CD40 antibody, read-out: IgE production suppressing ratio (%)
Description: (§1) The concentrations of IgE and IgG antibodies were measured by the following method according to the method described in the Journal of Immunology vol.146, pp.1836-1842, 1991 and the Journal of Immunology vol. 147, pp.8-13, 1991.
(§2) Concretely, lymphocyte was separated from the peripheral venous blood of healthy person by density gradient centrifugation. The obtained lymphocyte was washed, suspended in a culture liquid (RPMI-1640 (product of Gibco Co.)+10% heat-inactivated FCS (product of Whittaker Co.)+100 μg/ml streptomycin+100 U/ml penicillin G+2 mM L-glutamine) and cultured for a week in the presence of interleukin 4 (IL-4, product of GENZYME Co.) (0.1 μg/ml), anti-CD40 antibody (antiCD40Aab, product of BIOSOURCE Co.), clone B-B20) (2 μg/ml) and interleukin 10 (IL-10, product of GENZYME Co.) (0.2 μg/ml) in the presence or absence of the compounds of the present invention described in the Tables 10 to 15 at various concentrations as test drugs.
(§3) The culture liquid was added to the culture system, the culture was continued for additional one week, and the concentrations of IgE and IgG antibodies in the supernatant were measured by sandwich ELISA method.
(§4) The measurement by ELISA method was carried out according to the known ELISA method by using rabbit anti-human IgE(ε) antibody (product of ICN Co.) as the primary antibody and biotin.anti-human IgE monoclonal antibody (G7-26, product of PharMingen Co.) as the secondary antibody for the measurement of IgE antibody concentration and anti-human IgG monoclonal antibody (G18-145, product of PharMingen Co.) as the primary antibody and biotin-donkey anti-human IgG antibody (H+L) (product of Jackson Co.) as the secondary antibody for the measurement of IgG antibody concentration, and using avidin-biotin-hourse radish peroxidase (ABC kit, product of Vector Lab.) as the enzyme and TMB (3,3′,5,5′-tetramethylbenzidine) microwell peroxidase substrate system (product of Kirkegaard & Perry Laboratories Inc.) as the substrate.
(§5) The value of IC50 and the suppressing ratio (%) at the test drug concentration of 1 μM were calculated based on the concentration attained in the absence of the compound of the present invention (reference: Ueshimna, et al. American Academy of Allergy & Immunology, 1995 Annual Meeting, Program No.818).

[2] = system: IgG antibody production from human lymphocyte; experiment: Human in vitro IgG antibody production (same lymphocyte culture, sandwich ELISA); conditions: for inhibition at 1 µM: Homo sapiens, Lymphocyte, test drug concentration 1 μM, IL-4 + IL-10 + anti-CD40 antibody, read-out: IgG production suppressing ratio (%); for IC50: IgG antibody production
Description: as §1, §2, §3, §4, §5

[3] = system: Cultured human cancer cells; experiment: Carcinostatic action on cultured human cancer cell (sulforhodamine B; GI50, TGI, LC50); conditions: for CC50 / GI50: Homo sapiens
Description: [Procedure] Cultured human cancer cells (39 kinds) were scattered on a 96 well plate, a solution of the testing substance (5-stage concentrations starting from 10^−4 M and diluted 10 times to 10^−8 M) was added thereto on the next day and the cells were cultured for 2 days. The number of the proliferated cells on each plate was determined by colorimetric quantitative analysis with sulforhodamine B. The concentration to suppress the proliferation of cell by 50% (GI50) compared with a control (free from the testing substance) was calculated and the following values (concentrations) were calculated based on the number of cells immediately before the addition of the testing substance.
TGI: concentration to suppress the proliferation to a standard cell number (free from the change of apparent number of cells)
LC50: concentration to decrease the number of cells to 50% of the standard cell number (cytocidal activity)
The proliferation-suppressing results of three testing substances 124, 257 and 983 on 9 representative cancer cell strains are collectively shown in the Tables 93 to 95.

[4] = L929, 72 h, read-out: LD50 (μM)
[5] = 72 h, cytotoxic activity against L929, neutral red assay, 3 days culture, read-out: LD50 (the source's name)

CC(=O)NC1(COc2ccc(Oc3ccc(CC(=O)Nc4ccccc4C(=O)O)cc3)cc2)CCCC1 [compound 73]
CC50 (L929 cells; [4]): > 5 µM

CNc1ccccc1C(=O)N[C@H]1CC[C@@H](Oc2ccc(Oc3ccc(CC(=O)Nc4ccccc4C(=O)O)cc3)cc2)CC1 [compound 156]
CC50 (L929 cells; [5]): 0.3 µM

O=C(Cc1ccc(Oc2ccc(OC3CCC(NS(=O)(=O)c4ccccc4)CC3)cc2)cc1)Nc1ccccc1C(=O)O (stereo not shown) [compound 121]
IC50 [1]: 0.027 µM
inhibition at 1 µM [1]: 100%
inhibition at 1 µM [2]: 77.5%
IC50 [2]: 0.543 µM
CC50 (L929 cells; [4]): 1.8 µM

O=C(Cc1ccc(Oc2ccc3cc(O[C@H]4CC[C@@H](NC(=O)c5cc(Cl)cnc5Cl)CC4)ccc3c2)cc1)Nc1ccccc1C(=O)O [compound 351]
IC50 [1]: < 0.01 µM
inhibition at 1 µM [1]: 100%
inhibition at 1 µM [2]: 71.7%
IC50 [2]: 0.662 µM
CC50 (L929 cells; [5]): 0.31 µM

O=C(Cc1ccc(Oc2ccc3cc(OCCN4CCOCC4)ccc3c2)nc1)Nc1ccccc1C(=O)O [compound 427]
IC50 [1]: 0.04 µM
inhibition at 1 µM [1]: 96.4%
inhibition at 1 µM [2]: > 10%
IC50 [2]: > 10 µM

CCOCCOc1ccc(Oc2ccc(CC(=O)Nc3ccccc3C(=O)O)cn2)cc1 [compound 415]
IC50 [1]: 0.028 µM
inhibition at 1 µM [1]: 100%
inhibition at 1 µM [2]: -85.8%
IC50 [2]: 9.76 µM

CC(C)(C)OC(=O)NC1CCC(Oc2ccc(Oc3ccc(CC(=O)Nc4ccccc4C(=O)O)cc3)cc2)CC1 (stereo not shown) [compound 133]
IC50 [1]: 0.042 µM
inhibition at 1 µM [1]: 100%
inhibition at 1 µM [2]: 98.2%
IC50 [2]: 0.228 µM
CC50 (L929 cells; [4]): 0.33 µM

O=C(CCCOc1ccc2cc(Oc3ccc(CC(=O)Nc4ccccc4C(=O)O)cc3)ccc2c1)Nc1ccccc1C(=O)O [compound 4]
CC50 (L929 cells; [5]): 0.375 µM

O=C(Cc1ccc(Oc2ccc(OC3CCCCCCC3)cc2)nc1)Nc1ccccc1C(=O)O [compound 983]
TGI ([3]; HBC-4): 76000 nM
TGI ([3]; HCT-15): 30000 nM
CC50 ([3]; HBC4, HBC-4): > 100000 nM
GI50 ([3]; HBC4, HBC-4): 590 nM
CC50 ([3]; HCT-15): > 100000 nM
GI50 ([3]; HCT-15): 100 nM
CC50 ([3]; MKN-74): > 100000 nM
GI50 ([3]; MKN-74): 460 nM
CC50 ([3]; NCI-H460): 95000 nM
GI50 ([3]; NCI-H460): 330 nM
CC50 ([3]; OVCAR-8): > 100000 nM
GI50 ([3]; OVCAR-8): 4200 nM
CC50 ([3]; PC-3): > 100000 nM
GI50 ([3]; PC-3): 4500 nM
CC50 ([3]; RXF-631L): 96000 nM
GI50 ([3]; RXF-631L): 400 nM
CC50 ([3]; SF-539): 51000 nM
GI50 ([3]; SF-539): 600 nM
CC50 ([3]; LOX-IMVI): 50000 nM
GI50 ([3]; LOX-IMVI): 260 nM
TGI ([3]; LOX-IMVI): 3400 nM
TGI ([3]; MKN-74): 25000 nM
TGI ([3]; NCI-H460): 16000 nM
TGI ([3]; OVCAR-8): 40000 nM
TGI ([3]; PC-3): 31000 nM
TGI ([3]; RXF-631L): 18000 nM
TGI ([3]; SF-539): 20000 nM

COC(=O)N1CCC(Oc2ccc(Oc3ccc(CC(=O)Nc4ccccc4C(=O)O)cc3)cc2)CC1 [compound 79]
IC50 [1]: 0.04 µM
inhibition at 1 µM [1]: 100%
inhibition at 1 µM [2]: 92.4%
IC50 [2]: 0.489 µM
CC50 (L929 cells; [4]): 0.98 µM

CCCCC(=O)N[C@H]1CC[C@@H](Oc2ccc3cc(Oc4ccc(C(=O)Nc5ccccc5C(=O)O)cc4)ccc3c2)CC1 [compound 370]
IC50 [1]: 0.027 µM
inhibition at 1 µM [1]: 94.7%
inhibition at 1 µM [2]: -45.5%
IC50 [2]: > 1 µM
CC50 (L929 cells; [4]): 6.8 µM

O=C(Cc1ccc(Oc2ccc3cc(OCC(=O)c4ccccc4)ccc3c2)cc1)Nc1ccccc1C(=O)O [compound 6]
CC50 (L929 cells; [4]): 2.4 µM
